Experimental data: paper PMC5681653, “Structural basis of arrestin-3 activation and signaling” (Nature Communications, 2017)

What was measured:
arrestin-3 (1-393) = biological target: T1, arrestin-3 (1-393) (Bos taurus, UniProt P32120); assay: microscale thermophoresis, two-site fit, pre-IR fluorescence change; assay type: binding
T1 construct: gene ARRB2; residues 1-393 (stop codon at L394, deletes 394-408), pTrcHisB, E. coli BL21 Gold, purified by heparin, Q/SP and size exclusion columns; 43 kD monomer, 134 kD trimer with IP6

His tagged JNK3α2 = His tagged JNK3α2 (UniProt P53779); assay: pull-down; His tagged JNK3α2 (10 µg) on Ni-NTA resin, arrestin-3 (10 µg) added with and without 100 µM IP6; wash 20 mM MOPS pH 7.4, 150 mM NaCl, 25 mM imidazole; eluted with 250 mM imidazole; Coomassie and Western, densitometry
Chain of His tagged JNK3α2 (P53779 whole entry): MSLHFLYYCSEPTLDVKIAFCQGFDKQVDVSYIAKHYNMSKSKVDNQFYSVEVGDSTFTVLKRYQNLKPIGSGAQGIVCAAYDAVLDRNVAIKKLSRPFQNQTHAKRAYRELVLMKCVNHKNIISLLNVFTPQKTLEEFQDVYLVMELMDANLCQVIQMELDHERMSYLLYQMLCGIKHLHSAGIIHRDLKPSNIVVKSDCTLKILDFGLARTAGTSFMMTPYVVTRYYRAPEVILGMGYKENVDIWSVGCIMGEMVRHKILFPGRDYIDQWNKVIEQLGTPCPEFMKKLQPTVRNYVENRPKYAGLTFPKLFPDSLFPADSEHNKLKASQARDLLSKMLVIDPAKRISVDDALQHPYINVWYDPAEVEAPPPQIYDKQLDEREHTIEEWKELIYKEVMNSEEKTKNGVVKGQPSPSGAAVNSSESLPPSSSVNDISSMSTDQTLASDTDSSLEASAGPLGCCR

T1 sequence (P32120 1-393 isoform P32120-2): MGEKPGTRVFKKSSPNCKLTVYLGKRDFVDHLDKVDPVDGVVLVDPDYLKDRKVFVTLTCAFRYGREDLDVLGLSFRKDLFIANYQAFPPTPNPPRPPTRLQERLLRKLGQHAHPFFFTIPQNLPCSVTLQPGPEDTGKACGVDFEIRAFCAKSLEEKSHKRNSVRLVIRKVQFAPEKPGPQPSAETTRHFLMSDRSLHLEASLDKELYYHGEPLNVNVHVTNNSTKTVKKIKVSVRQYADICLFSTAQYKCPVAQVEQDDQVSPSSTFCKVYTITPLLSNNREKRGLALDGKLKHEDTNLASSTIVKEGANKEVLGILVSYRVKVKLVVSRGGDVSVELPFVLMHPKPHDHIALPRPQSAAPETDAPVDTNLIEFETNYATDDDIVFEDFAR

| Kd (arrestin-3 (1-393)) [µM] | fold change of bound arrestin-3 with 100 µM IP6 against without IP6 (His tagged JNK3α2) [fold] | Compound |
| --- | --- | --- |
| 0.057 | – | O=P(O)(O)O[C@H]1[C@H](OP(=O)(O)O)[C@@H](OP(=O)(O)O)[C@H](OP(=O)(O)O)[C@@H](OP(=O)(O)O)[C@H]1OP(=O)(O)O [IP6] |
| – | 2 | bovine arrestin-3 (1-393) (domain or fragment) |
